According to patent publication US20210162009A1, “CHEMOKINE VARIANTS AS IMMUNE STIMULANTS” (THE MEDICAL COLLEGE OF WISCONSIN, INC., priority 2017, published 2021):

Columns and labels:
melanoma metastasis = conditions: cited from earlier work; for blocking of tumor metastasis: side-by-side equimolar comparison, 5 μM
[1] = Translational diffusion measurements (dimerisation state); assay type: physicochemical
Source text: The lines connecting the cysteines show where the intra-and intermolecular disulfide bonds are. A) CXCL12-α2 locked dimer amino acid sequence with the conserved intramolecular disulfide bonds (black lines) and the engineered intermolecular disulfide bonds (red lines) illustrated. B) SDS-PAGE of CXCL12-αand CXCL12-α2 treated with and without dithiothreitol (DTT). […] D) N-terminal peptides corresponding to the first thirty-eight amino acids of CXCR4 are illustrated. The sequence for p38 is identical to that of CXCR4 except for an additional N-terminal Gly-Ser dipeptide (cloning artifact) and the C28A substitution (green) introduced to prevent oxidative peptide dimer formation. The sulfated peptides are identical to p38 except for the inclusion of sulfotyrosine at position 21 for p38-sY1 and at positions 7, 12 and 21 for p38-sY3.

lymphocytes = assay: Mobilization of lymphocytes into peripheral blood and out of bone marrow; assay type: in vivo, mice
Procedure: (§1) FIGS. 6A-6C show mobilization of lymphocytes into the peripheral blood (A) and out of the bone marrow (B) 1 hour after subcutaneous injection of 5 μM (0.8 mg/kg) CXCL12 locked dimer 104 or 4000 μM (20 mg/kg) plerixafor/AMD3100 102. Control mice received an injection of the chemokine vehicle (Veh), sterile PBS 100. Values are mean±SEM, n=3-4 mice per group. Asterisks (****)=[…].
The chemokine CXCL12 is produced by bone marrow stromal cells (17). A single dose infusion of plerixafor/AMD3100 competitively antagonizes CXCR4 to disrupt stromal CXCL12 interactions with bone marrow cells, mobilizing HSC to enter into the peripheral blood (6). […] Importantly, the 5 μM the CXCL12 locked dimer dose used is the same concentration we have used to block tumor metastasis in vivo and where plerixafor/AMD3100 is ineffective (FIGS. 5A-5B).
After blood collection, treated and control mice were sacrificed and the bone marrow of each femur flushed with PBS. Peripheral blood and marrow samples were centrifuged (1800×g for 15 min at room temperature), the plasma removed, and the leukocytes in the buffy coat collected, an aliquot used to enumerate the total cell population using hemocytometry, and the remaining cells transferred to flow cytometry tubes. Peripheral and bone marrow immunocytes were incubated with fluorescence-tagged antibodies to detect the HSC markers CD34, CD11, SCA1, CD90, CD38, Lin and CXCR4, or the T cell and B cell markers CD3 and CD19, respectively.
Control mice received an injection of the chemokine vehicle (Veh), sterile PBS 100. Values are mean ±SEM, n=3-4 mice per group. Asterisks (****)=P≤0.001.

[2] = relative to natural CXCL12; cited from earlier work
[3] = Toxicity: serum AST, ALT, BUN; assay type: in vivo; conditions: 5 μM twice weekly for 3 weeks, mice
Procedure: Serum levels of aspartate aminotransferase (AST) and alanine aminotransferase (ALT) were measured using serologic assays to measure hepatic toxicity. Serum levels of blood urea nitrogen (BUN) were monitored to detect kidney damage.
Toxicity—Blood, bone marrow, and tissue levels of CXCL12 were measured using a commercially available sandwich ELISA assay (20-22). The ELISA will detect both endogenous and exogenous CXCL12. Toxicity is monitored using histopathologic assessment of heart, and kidney, and serum assays of hepatic (e.g. AST, ALT, AP) and kidney (e.g. BUN, creatinine) biomarkers, using standard veterinary assays. […] Published data (Roy et al., 2014) indicate twice weekly injection of 5 μM chemokine protein is well tolerated, with no change in body weight or appearance after 120 days in tumor xenografted mice.

Heparin binding = assay: Heparin binding
Source text: Further, in addition to binding CXCR4, CXCL12 also binds to heparin found in the extracellular matrix on cell surfaces. […] Amino acid substitutions in CXCL12, including K24S, K27S, or K24S/K27S can prevent heparin binding and increase the half-life of CXCL12 in vivo; therefore, similar mutations in CXCL12-α2 would likely prevent heparin binding and increase the in vivo half-life of the dimer.

CXCR4 [4] = target: T1, CXCR4 (Homo sapiens, UniProt P61073); conditions: 10 nM CXCL12 variants, with or without pertussis toxin; cited from earlier work
T1 sequence (P61073 whole entry): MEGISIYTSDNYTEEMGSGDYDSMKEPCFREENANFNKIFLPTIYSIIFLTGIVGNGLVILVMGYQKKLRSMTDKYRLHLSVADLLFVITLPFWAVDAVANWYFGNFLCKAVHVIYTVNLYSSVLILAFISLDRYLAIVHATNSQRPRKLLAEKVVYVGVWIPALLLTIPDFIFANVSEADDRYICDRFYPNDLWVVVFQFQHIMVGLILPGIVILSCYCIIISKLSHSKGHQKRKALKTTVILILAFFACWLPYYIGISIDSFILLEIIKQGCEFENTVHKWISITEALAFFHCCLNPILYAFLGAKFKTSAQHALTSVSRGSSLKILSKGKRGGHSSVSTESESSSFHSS

[5] = test system: 5T33 multiple myeloma cells; assay: Mobilization of GFP-tagged 5T33 multiple myeloma cells into the blood; assay type: in vivo, mice; conditions: 50 μM subcutaneous, 1 hour, GFP+ cells by flow cytometry
Procedure: Representative flow cytometry plots are on the left measuring side scatter counts (SSC) and GFP+-5T33 multiple myeloma cells in the circulation before and after treatment shown in the right panels. n=5 mice per treatment group.
This mobilization is compared to the mobilization following administration of AMD3100. Mice bearing GFP-tagged 5T33 multiple myeloma cells were bled immediately prior to subcutaneous injection of either the CXCL12 locked dimer (50 μM) or AMD3100 (4 mM). Individual mice were re-bled 1-hour later and GFP+ myeloma tumor cells in peripheral circulation quantified by flow cytometry. Representative flow cytometry plots are on the left with GFP+-5T33 multiple myeloma cells in the circulation before and after treatment shown in the right panels. n=5 mice per treatment group.

CD34+CXCR4+ stem cells = assay: Mobilization of CD34+CXCR4+ hematopoietic stem cells; assay type: in vivo, mice
Procedure: as §1
FIGS. 8A-8C show mobilization of hematopoietic stem cells by the CXCL12 locked dimer. Mice were bled (baseline) prior to subcutaneous injection of LD at a final concentration of 5 μM. Mice were re-bled 15-minutes (FIG. 8A), 2-hours (FIG. 8B) or 4-hours (FIG. 8C) later. Two separate cohorts of mice (shown by circles and squares) were treated (n=3 per group) and show consistent increases in the number of CD34+ stem cells in the circulation.
After blood collection, treated and control mice were sacrificed and the bone marrow of each femur flushed with PBS. […] Peripheral and bone marrow immunocytes were incubated with fluorescence-tagged antibodies to detect the HSC markers CD34, CD11, SCA1, CD90, CD38, Lin and CXCR4, or the T cell and B cell markers CD3 and CD19, respectively.
FIGS. 8A-8C also show mobilization of hematopoietic stem cells by the CXCL12 locked dimer. […] Levels of CD34+CXCR4+ stem cells within circulating blood were detected and quantified using multiparametric flow cytometry.

CXCR4 [6] = target: T1, CXCR4; conditions: 125I-CXCL12 displacement; read-out: Kd for binding CXCR4; cited from earlier work
[7] = fitted, 20 mM sodium phosphate pH 7.4

## c1cc(CN2CCCNCCNCCCNCC2)ccc1CN1CCCNCCNCCCNCC1 [plerixafor/AMD3100, plerixafor, reference compound]
Melanoma metastasis
  blocking of tumor metastasis: ineffective

## CXCL12 locked dimer: covalently locked dimer comprising two CXCL12 L36C/A65C sequences (SEQ ID NO: 1), linked by intermolecular disulfide bonds
[1]; 10, 50 and 150 μM protein
  Diffusion coefficient Ds: 1.08-1.09 ×10^−6 cm^2s^−1
lymphocytes; 5 μM, subcutaneous, 1 hour
  bone marrow resident lymphocytes: concomitant decrease in bone marrow resident lymphocytes
  mobilization of hematopoietic cells into peripheral circulation: potently stimulated mobilization of hematopoietic cells into peripheral circulation
lymphocytes; 1 hour after s.c. 5 μM (0.8 mg/kg) locked dimer or 4000 μM (20 mg/kg) plerixafor/AMD3100
  ability to mobilize lymphocytes, locked dimer vs AMD3100: no statistical difference
lymphocytes; vs plerixafor
  potency relative to plerixafor for mobilizing lymphocytes, mg/kg basis: 3 X
lymphocytes; vs plerixafor, also monocytes and neutrophils
  potency relative to plerixafor for mobilizing lymphocytes, molar basis: 1000 ×
[2]
  stability against enzymatic digestion in serum: enhanced stability against enzymatic digestion in serum
[3]
  hepatic or kidney toxicity (AST, ALT, BUN): little hepatic or kidney toxicity
Heparin binding
  heparin binding: also binds heparin
Melanoma metastasis; dose response
  inhibition of melanoma metastasis: dose dependently inhibits melanoma metastasis
Melanoma metastasis; equimolar concentrations
  melanoma metastasis, comparison with plerixafor/AMD3100: more effective than plerixafor/AMD3100
Melanoma metastasis
  blocking of tumor metastasis: blocked tumor metastasis
CXCR4 [4]
  G protein dependent intracellular calcium flux: activates the expected and prototypical G protein dependent intracellular calcium flux
[5]
  mobilization of multiple myeloma cells into the blood: mobilizes multiple myeloma cells into the blood
CD34+CXCR4+ stem cells; 5 μM s.c., 15 minutes, 2 hours or 4 hours, two cohorts
  number of CD34+ stem cells in circulation: consistent increases in the number of CD34+ stem cells in circulation
CD34+CXCR4+ stem cells; FIG. 6C
  mobilization of CXCR4+CD34+ hematopoietic stem cells (FIG. 6C): mobilization of CXCR4+CD34+ hematopoietic stem cells

## wild-type CXCL12: wild type CXCL12 chemokine (SEQ ID NO:3), natural ligand for CXCR4
[1]; [7]
  dimer Ds value: ~1.0 ×10^−6 cm^2s^−1
  pure monomer Ds value: ~1.6 ×10^−6 cm^2s^−1
[2]
  stability against enzymatic digestion in serum: rapidly inactivated in serum
[3]
  hepatic or kidney toxicity (AST, ALT, BUN): little hepatic or kidney toxicity
CXCR4 [6]
  Kd: 25 nM
